Source: ChEMBL document CHEMBL4418271, “Novel Ethanediamone Hepcidine Antagonists” (2012)

Experiments:
Ferroportin = Ferroportin (Homo sapiens, UniProt Q9NP59); assay: Inhibition of human hepcidin-stimulated recombinant C-terminal Halo-tagged human FPN internalization in MDCK cells incubated for 15 to 20 mins by Halo-tagged TMR based fluorescence assay; format: cell-based
Hepcidin (Homo sapiens) = target: T1, Hepcidin (Homo sapiens) (UniProt P81172); assay: Inhibition of human hepcidin-stimulated recombinant C-terminal Halo-tagged human FPN internalization in MDCK cells at 10 uM incubated for 15 to 20 mins by Halo-tagged TMR based fluorescence assay relative to control; format: cell-based
T1 sequence (whole entry): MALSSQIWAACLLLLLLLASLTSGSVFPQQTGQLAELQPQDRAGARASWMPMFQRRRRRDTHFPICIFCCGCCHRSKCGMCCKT

Chain of Ferroportin (Q9NP59 whole entry, looked up): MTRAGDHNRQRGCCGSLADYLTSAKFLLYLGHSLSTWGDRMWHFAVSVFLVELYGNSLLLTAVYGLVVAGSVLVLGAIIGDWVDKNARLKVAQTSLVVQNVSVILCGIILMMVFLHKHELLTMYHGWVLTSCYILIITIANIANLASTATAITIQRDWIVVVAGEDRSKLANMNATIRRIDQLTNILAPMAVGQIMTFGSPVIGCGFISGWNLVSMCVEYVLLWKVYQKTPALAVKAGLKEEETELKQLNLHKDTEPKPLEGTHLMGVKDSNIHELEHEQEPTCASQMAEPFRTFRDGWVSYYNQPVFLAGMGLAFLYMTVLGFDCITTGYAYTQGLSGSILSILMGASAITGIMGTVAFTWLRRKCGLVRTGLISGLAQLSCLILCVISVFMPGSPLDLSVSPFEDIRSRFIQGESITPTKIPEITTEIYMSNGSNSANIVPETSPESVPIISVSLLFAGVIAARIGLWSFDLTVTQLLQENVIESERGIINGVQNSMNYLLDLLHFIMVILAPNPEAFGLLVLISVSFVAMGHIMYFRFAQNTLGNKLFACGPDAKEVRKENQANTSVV

Structure (SMILES) | IC50 (Ferroportin) [µM] | inhibition (Hepcidin (Homo sapiens)) [%]
COCCN1CCN(C(CN2CCC(N(C)C)CC2)c2ccccc2)CC1 (configuration not stated) | < 50 | –
COCCN1CCN(C(CN2CCC(Nc3ccccc3)CC2)c2ccccc2)CC1 (configuration not stated) | > 100 | –
O=C(C1CCCO1)N1CCN(CC(NCc2cccs2)c2ccc(F)cc2)CC1 (configuration not stated) | > 100 | –
COCCN1CCN(C(CN2CCC(N3CCN(C)CC3)CC2)c2ccccc2)CC1 (configuration not stated) | > 100 | –
COCCN1CCN(C(CN2CCC(NC(C)=O)CC2)c2ccccc2)CC1 (configuration not stated) | < 100 | –
COCCN1CCN(C(CN2CCC(N3CCCCC3)CC2)c2ccc(C#N)cc2)CC1 (configuration not stated) | < 50 | –
CCN(CC)CCN1CCN(C(CN2CCC(N3CCCCC3)CC2)c2ccccc2)CC1 (configuration not stated) | > 100 | –
COCCN1CCN(C(CN2CCC(N3CCC(C)CC3)CC2)c2ccccc2)CC1 (configuration not stated) | < 100 | –
COCCCN1CCN(C(CN2CCC(N3CCCCC3)CC2)c2ccccc2)CC1 (configuration not stated) | < 50 | –
O=C(C1CCCO1)N1CCN(CC(NCc2ccccc2)c2ccccc2)CC1 (configuration not stated) | > 100 | –
COCCNC(CN1CCN(C(=O)C2CCCO2)CC1)c1ccc(F)cc1 (configuration not stated) | > 100 | –
COCCN1CCN(C(CN2CCC(N3CCCCC3)CC2)c2ccc(C)cc2)CC1 (configuration not stated) | < 50 | –
O=C(c1ccccn1)N1CCN(CC(NCc2ccccn2)c2ccc(F)cc2)CC1 (configuration not stated) | > 100 | –
COCCN1CCN(C(CN2CCC(C3CCCCC3)CC2)c2ccccc2)CC1 (configuration not stated) | > 100 | –
O=S(=O)(c1ccccc1)N1CCN(CC(NCc2ccccn2)c2ccc(F)cc2)CC1 (configuration not stated) | > 100 | –
NC(CN1CCN(c2cnccn2)CC1)c1ccc(F)cc1 (configuration not stated) | > 100 | –
COCCN1CCN(C(CN2CCC(N3CCCCC3)CC2)c2cccc(OC)c2)CC1 (configuration not stated) | < 100 | –
Fc1cccc(C(CN2CCN(c3cnccn3)CC2)NCc2ccccn2)c1 (configuration not stated) | > 100 | –
COCCN1CCN(C(CN2CCC(N3CCCCC3)CC2)c2ccccc2Cl)CC1 (configuration not stated) | > 100 | –
NC(CN1CCN(C(=O)C2CCCO2)CC1)c1ccc(F)cc1 (configuration not stated) | > 100 | –
c1ccc(C(CN2CCN(c3cnccn3)CC2)NCc2ccccn2)cc1 (configuration not stated) | > 100 | –
Fc1ccc(C(CN2CCN(c3cnccn3)CC2)NCc2ccccc2)cc1 (configuration not stated) | > 50 | –
CCOCCN1CCN(C(CN2CCC(N3CCCCC3)CC2)c2ccccc2)CC1 (configuration not stated) | < 50 | –
c1ccc(C(CN2CCC(N3CCCCC3)CC2)NCCN2CCOCC2)cc1 (configuration not stated) | < 100 | < 50
c1ccc(CNC(CN2CCN(c3cnccn3)CC2)c2ccncc2)nc1 (configuration not stated) | > 100 | –

Structure (SMILES) | IC50 (Ferroportin) [µM] | inhibition (Hepcidin (Homo sapiens)) [%]
O=C(C1CCCO1)N1CCN(CC(NCc2ccccc2)c2ccc(F)cc2)CC1 (configuration not stated) | > 100 | –
COCCN1CCN(C(CN2CCC(C(=O)NC3CCCCC3)CC2)c2ccccc2)CC1 (configuration not stated) | > 100 | –
COCCN1CCN(C(CN2CCC(N3CCCCC3)CC2)c2ccc(C(F)(F)F)cc2)CC1 (configuration not stated) | < 50 | –
COCCN1CCN(C(CN2CCOCC2)c2ccccc2)CC1 (configuration not stated) | > 100 | –
COCCN1CCN(C(CN2CCC(NC3CCCC3)CC2)c2ccccc2)CC1 (configuration not stated) | < 50 | –
COCCC1CCN(C(CN2CCC(N3CCCCC3)CC2)c2ccccc2)CC1 (configuration not stated) | > 100 | –
COCCN1CCCN(C(CN2CCC(N3CCCCC3)CC2)c2ccccc2)CC1 (configuration not stated) | < 50 | –
Fc1ccc(C(CN2CCN(c3cnccn3)CC2)NCc2cccs2)cc1 (configuration not stated) | > 50 | –
COCCN1CCN(C(CN2CCC(N3CCCCC3)CC2)c2cccc(Cl)c2)CC1 (configuration not stated) | > 100 | –
CNC(=O)C1CCN(CC(c2ccccc2)N2CCN(CCOC)CC2)CC1 (configuration not stated) | < 100 | –
Fc1ccc(C(CN2CCN(c3cnccn3)CC2)NCc2ccccn2)cc1 (configuration not stated) | < 50 | > 50
O=C(C1CCCO1)N1CCN(CC(NCc2ccccn2)c2ccccc2)CC1 (configuration not stated) | – | < 50
CCOc1ccc(C(CN2CCC(N3CCCCC3)CC2)N2CCN(CCOC)CC2)cc1 (configuration not stated) | > 100 | –
CC(C)N1CCN(C(CN2CCC(N3CCCCC3)CC2)c2ccccc2)CC1 (configuration not stated) | > 100 | –
COc1ccc(CNC(CN2CCCCC2)c2ccccc2)cc1 (configuration not stated) | > 100 | –
c1ccc(C(CN2CCC(N3CCCCC3)CC2)N2CCN(CCn3ccnc3)CC2)cc1 (configuration not stated) | > 100 | –
O=C(C1CCCO1)N1CCN(C(CN2CCC(N3CCCCC3)CC2)c2ccccc2)CC1 (configuration not stated) | > 100 | –
COCCN1CCN(C(CN2CCC(NC(=O)c3ccccc3)CC2)c2ccccc2)CC1 (configuration not stated) | > 100 | –
COc1ccc(CNC(CN2CCC(N3CCCCC3)CC2)c2ccccc2)cc1 (configuration not stated) | < 100 | < 50
COCCNC(CN1CCN(c2cnccn2)CC1)c1ccc(F)cc1 (configuration not stated) | > 100 | –
COCCN1CCN(C(CN2CCN(c3ccccc3)CC2)c2ccccc2)CC1 (configuration not stated) | > 100 | –
CCCCN1CCN(C(CN2CCC(N3CCCCC3)CC2)c2ccccc2)CC1 (configuration not stated) | > 100 | –
c1ccc(C(CN2CCCCC2)NCCN2CCOCC2)cc1 (configuration not stated) | < 100 | –
c1ccc(C(CN2CCC(N3CCCCC3)CC2)N2CCN(c3ccccn3)CC2)cc1 (configuration not stated) | > 100 | –
COCCN1CCN(C(CN2CCC(N3CCCCC3)CC2)c2ccc(F)cc2)CC1 (configuration not stated) | < 50 | –

Structure (SMILES) | IC50 (Ferroportin) [µM] | inhibition (Hepcidin (Homo sapiens)) [%]
c1ccc(C(CN2CCC(N3CCCCC3)CC2)N2CCN(C3CCCC3)CC2)cc1 (configuration not stated) | > 100 | –
COCCN1CCN(C(CN2CCC(N3CCCCC3)CC2)c2ccc(OC)cc2)CC1 (configuration not stated) | < 50 | –
Fc1ccc(C(CN2CCN(c3ccccn3)CC2)NCc2ccccn2)cc1 (configuration not stated) | > 100 | –
Clc1ccc(C(CN2CCN(c3cnccn3)CC2)NCc2ccccn2)cc1 (configuration not stated) | > 100 | –
CCOC(=O)C1CCN(CC(c2ccccc2)N2CCN(CCOC)CC2)CC1 (configuration not stated) | > 100 | –
CN(CCN(C)c1cnccn1)CC(NCc1ccccn1)c1ccc(F)cc1 (configuration not stated) | < 50 | –
COCCN1CCN(C(CN2CCC(NC(=O)C3CCCCC3)CC2)c2ccccc2)CC1 (configuration not stated) | < 50 | –
COCCN1CCN(C(CN2CCC(NC(=O)C(C)C)CC2)c2ccccc2)CC1 (configuration not stated) | < 100 | –
COCCN1CCN(C(CN2CCC(N3CCCCC3)CC2)c2ccc(Cl)cc2)CC1 (configuration not stated) | > 100 | –
Fc1ccccc1C(CN1CCN(c2cnccn2)CC1)NCc1ccccn1 (configuration not stated) | > 100 | –
COCCN1CCN(C(CN2CCC(C(=O)Nc3ccccc3)CC2)c2ccccc2)CC1 (configuration not stated) | < 100 | –
CCN(CC)C1CCN(CC(c2ccccc2)N2CCN(CCOC)CC2)CC1 (configuration not stated) | < 50 | –
COCCN1CCN(C(CN2CCC(N3CCOCC3)CC2)c2ccccc2)CC1 (configuration not stated) | < 50 | –
COCCN1CCN(C(CN2CCC(N3CCCCC3)CC2)c2ccccc2)CC1 (configuration not stated) | < 50 | > 50
CC(=O)N1CCN(CC(NCc2ccccn2)c2ccc(F)cc2)CC1 (configuration not stated) | > 100 | –
O=C(C1CCCO1)N1CCN(CC(NCc2ccccn2)c2ccc(F)cc2)CC1 (configuration not stated) | – | < 50
COc1ccccc1C(=O)N1CCN(CC(NCc2ccccn2)c2ccc(F)cc2)CC1 (configuration not stated) | < 50 | –
c1ccc(C(CN2CCC(N3CCCCC3)CC2)N2CCN(CC3CCCO3)CC2)cc1 (configuration not stated) | < 50 | –
c1ccc(C(CN2CCC(N3CCCCC3)CC2)N2CCN(c3cnccn3)CC2)cc1 (configuration not stated) | > 100 | –
Fc1ccc(C(CN2CCN(c3ccccc3)CC2)NCc2ccccn2)cc1 (configuration not stated) | > 100 | –
COCCN1CCN(C(CN2CCC(N3CCCCC3)CC2)c2ccc(OC(C)C)cc2)CC1 (configuration not stated) | > 100 | –
COCCN1CCN(C(CN2CCCCC2)c2ccccc2)CC1 (configuration not stated) | < 100 | –
COCCN1CCN(C(CN2CCC(N3CCCC3)CC2)c2ccccc2)CC1 (configuration not stated) | < 50 | –
